According to patent US11608332B2, “FGFR4 inhibitor and preparation method and use thereof” (Jiangsu Hansoh Pharmaceutical Group Co., Ltd., priority 2016, dated 2023):

How the values were obtained:
FGFR1 kinase = FGFR1 kinase (Homo sapiens (Human), UniProt P11362); assay: Enzymologic experiment of FGFR1 (TR-FRET); format: biochemical; conditions: TR-FRET kinase activity
Procedure, shortened: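 Inhibition of FGFR1 (0.1–5 nM) was measured by TR-FRET with 5–50 nM peptide substrate and 10–200 μM ATP over 0.5–3 h at room temperature. The reaction was stopped with EDTA plus labeled antibody for 1 h, read at 665 nm, and IC50 was fitted from inhibition rates.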

SK-HEP-1 cells = assay: Inhibition of SK-HEP-1 cell proliferation (CellTiter-Glo); format: cell-based; conditions: Homo sapiens, SK-HEP1, 72 hours
Procedure, shortened: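 SK-HEP-1 cells were seeded, grown 16–24 h, then exposed to serially diluted compound for 72 h at 37 °C, 5% CO2. Viability was read by CellTiter-Glo luminescence, and IC50 was fitted from inhibition rates.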

[1] = Pharmacokinetic (PK) analysis in rats; format: in vivo, Sprague Dawley (SD) rats; conditions: SD rats, single intragastric administration, 5 mg/kg, plasma; for AUC(0-t) / AUC(0-inf) / half-life / MRT / Cmax: Sprague-Dawley, rat, po; for AUC(0-t): read-out: Area Under Curve AUC0-t; for AUC(0-inf): read-out: Area Under Curve AUC0-∞; for half-life: read-out: Half-Time t1/2 (converted); for MRT: read-out: Mean Residence Time MRT; for Cmax: read-out: Plasma Concentration Cmax
Hep 3B cells = assay: Inhibition of Hep 3B cell proliferation (CellTiter-Glo); format: cell-based; conditions: Homo sapiens, Hep3B, 72 hours
Procedure, shortened: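 Hep 3B cells seeded at 1-5×10^4 cells/ml and incubated 16-24 h, then exposed to serially diluted compound for 72 h at 37° C, 5% CO2. Viability read by CellTiter-Glo chemiluminescence; IC50 curve-fitted from inhibition rates.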

FGFR4 kinase = FGFR4 kinase (Homo sapiens (Human), UniProt P22455); assay: Enzymologic experiment of FGFR4 (TR-FRET); format: biochemical; conditions: TR-FRET kinase activity
Protocol: 1. Enzymologic Experiment of FGFR4
In this experiment, the inhibitory effect of the compounds on FGFR4 kinase activity was tested by a fluorescence resonance energy transfer (TR-FRET) method, and the half maximal inhibitory concentration (IC50) of the compounds on the FGFR4 kinase activity was determined.
2) 1˜5 μL of diluted solution in gradient of the compound were added.
4) The mixture was incubated for 0.5-3 hours at room temperature.
5) 10 μL of EDTA and a test solution comprising labeled antibody were added, and the plate was incubated for 1 hour at room temperature.
6) The fluorescence signal values of each plate were determined by a microplate reader at 665 nm.
7) The inhibition rates were calculated according to the fluorescence signal values.

HuH-7 cells = assay: Inhibition of HuH-7 cell proliferation (CellTiter-Glo); format: cell-based; conditions: Homo sapiens, 72 hours
Procedure, shortened: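 HuH-7 cells, pre-incubated 16–24 h (37 °C, 5% CO2), then exposed to serially diluted compound for 72 h. Viability by CellTiter-Glo luminescence; inhibition rates from signal, IC50 by curve fitting.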

FGFR4 kinase, sequence (P22455 22-802): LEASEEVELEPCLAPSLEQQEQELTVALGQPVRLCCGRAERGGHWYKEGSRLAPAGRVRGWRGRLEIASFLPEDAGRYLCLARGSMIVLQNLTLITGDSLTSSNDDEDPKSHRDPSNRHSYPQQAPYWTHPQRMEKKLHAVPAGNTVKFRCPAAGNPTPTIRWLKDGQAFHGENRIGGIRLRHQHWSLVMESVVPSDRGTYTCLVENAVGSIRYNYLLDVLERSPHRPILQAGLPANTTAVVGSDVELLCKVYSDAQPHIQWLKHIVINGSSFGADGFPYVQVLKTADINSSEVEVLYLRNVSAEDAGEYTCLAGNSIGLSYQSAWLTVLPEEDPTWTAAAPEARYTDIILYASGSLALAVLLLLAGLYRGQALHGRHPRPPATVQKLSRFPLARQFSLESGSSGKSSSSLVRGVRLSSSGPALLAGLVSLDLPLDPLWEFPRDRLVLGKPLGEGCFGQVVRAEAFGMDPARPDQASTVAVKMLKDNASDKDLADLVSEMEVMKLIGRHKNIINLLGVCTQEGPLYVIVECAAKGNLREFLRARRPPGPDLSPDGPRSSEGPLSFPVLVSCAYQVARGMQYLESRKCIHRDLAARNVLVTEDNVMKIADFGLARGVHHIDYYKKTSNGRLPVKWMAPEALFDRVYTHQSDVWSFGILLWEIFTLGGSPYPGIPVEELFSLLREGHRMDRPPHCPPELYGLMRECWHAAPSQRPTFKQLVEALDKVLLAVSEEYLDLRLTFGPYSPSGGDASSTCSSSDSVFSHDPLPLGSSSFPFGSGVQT
FGFR1 kinase, sequence (P11362 22-822): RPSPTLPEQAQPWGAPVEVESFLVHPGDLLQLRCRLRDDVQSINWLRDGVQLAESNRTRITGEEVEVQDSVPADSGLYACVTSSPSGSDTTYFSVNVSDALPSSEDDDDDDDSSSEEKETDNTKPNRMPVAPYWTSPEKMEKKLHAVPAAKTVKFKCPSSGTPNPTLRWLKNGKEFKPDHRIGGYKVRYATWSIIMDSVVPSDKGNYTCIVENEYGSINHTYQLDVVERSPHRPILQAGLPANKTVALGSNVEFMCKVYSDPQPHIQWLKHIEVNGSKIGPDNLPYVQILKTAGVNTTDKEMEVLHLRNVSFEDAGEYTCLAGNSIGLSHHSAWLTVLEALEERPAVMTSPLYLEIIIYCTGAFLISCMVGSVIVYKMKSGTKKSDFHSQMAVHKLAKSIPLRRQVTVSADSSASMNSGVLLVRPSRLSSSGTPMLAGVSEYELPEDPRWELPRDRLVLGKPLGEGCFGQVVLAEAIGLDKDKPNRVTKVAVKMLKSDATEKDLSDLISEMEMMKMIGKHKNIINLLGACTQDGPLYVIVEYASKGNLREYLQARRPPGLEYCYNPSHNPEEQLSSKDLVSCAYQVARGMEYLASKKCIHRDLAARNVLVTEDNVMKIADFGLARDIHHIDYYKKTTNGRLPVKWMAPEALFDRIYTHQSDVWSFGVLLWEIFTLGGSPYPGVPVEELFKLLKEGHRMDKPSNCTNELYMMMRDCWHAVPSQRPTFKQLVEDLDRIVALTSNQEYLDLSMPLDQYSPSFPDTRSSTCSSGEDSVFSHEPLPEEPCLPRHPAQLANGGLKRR

IC50 (FGFR1 kinase)	IC50 (SK-HEP-1 cells)	Peak Time tmax [1]	AUC(0-t) [1]	AUC(0-inf) [1]	half-life [1]	MRT [1]	Cmax [1]	IC50 (FGFR4 kinase)	IC50 (HuH-7 cells)	SMILES	IC50 (Hep 3B cells)
> 10000 nM	> 10000 nM	2 h	9220 ng·h/mL	9240 ng·h/mL	0.8 h	2.5 h	2350 ng/mL	1.2 nM	9.4 nM	COC[C@@H](C)Oc1cc(NC(=O)N2CCCc3cc(CN4CC[C@H](OC)C4=O)c(C=O)nc32)ncc1C#N [Example 50, N-(5-Cyano-4-(((R)-1-methoxypropan-2-yl)oxy)pyridin-2-yl)-7-formyl-6-(((S)-3-methoxy-2-carbonylpyrrolidin-1-yl)methyl)-3,4-dihydro-1,8-naphthyridin-1(2H)-carboxamide]	2.3 nM
> 10000 nM	> 10000 nM	2 h	7520 ng·h/mL	7590 ng·h/mL	0.9 h	3 h	2330 ng/mL	1.32 nM	5.5 nM	CO[C@H]1CCN(Cc2cc3c(nc2C=O)N(C(=O)Nc2cc(NC4COC4)c(C#N)cn2)CCC3)C1=O [Example 83, (S)—N-(5-Cyano-4-(oxetan-3-ylamino)pyridin-2-yl)-7-formyl-6-((3-methoxy-2-carbonylpyrrolidin-1-yl)methyl)-3,4-dihydro-1,8-naphthyridin-1(2H)-carboxamide]	4.7 nM
> 10000 nM	> 10000 nM	2 h	6830 ng·h/mL	6900 ng·h/mL	1 h	2.7 h	2760 ng/mL	1.34 nM	13.1 nM	CO[C@H]1CCN(Cc2cc3c(nc2C=O)N(C(=O)Nc2cc(N[C@@H]4COC[C@H]4OC)c(C#N)cn2)CCC3)C1=O [Example 86]	3 nM
> 10000 nM	> 10000 nM	2 h	7160 ng·h/mL	7970 ng·h/mL	1.5 h	3 h	2690 ng/mL	2.53 nM	8 nM	COC[C@@H](C)Oc1cc(NC(=O)N2CCCc3cc(CN(C)C(=O)[C@H]4CCCO4)c(C=O)nc32)ncc1C#N [Example 15, N-(5-Cyano-4-(((R)-1-methoxypropan-2-yl)oxy)pyridin-2-yl)-7-formyl-6-(((R)—N-methyltetrahydrofuran-2-carboxamido)methyl)-3,4-dihydro-1,8-naphthyridin-1(2H)-carboxamide]	3.5 nM

The remaining lines, values behind:

SMILES	IC50 (FGFR1 kinase)	IC50 (SK-HEP-1 cells)	Peak Time tmax [1]	AUC(0-t) [1]	AUC(0-inf) [1]	half-life [1]	MRT [1]	Cmax [1]	IC50 (FGFR4 kinase)	IC50 (HuH-7 cells)	IC50 (Hep 3B cells)
CN(Cc1cc2c(nc1C=O)N(C(=O)Nc1cc(N[C@H]3CCOC3)c(C#N)cn1)CCC2)C(=O)C1CCOCC1 [Example 99, (S)—N-(5-Cyano-4-((tetrahydrofuran-3-yl)amino)pyridin-2-yl)-7-formyl-6-((N-methyltetrahydro-2H-pyran-4-carboxamido)methyl)-3,4-dihydro-1,8-naphthyridin-1(2H)-carboxamide]	> 10000 nM	> 10000 nM	–	–	–	–	–	–	1.95 nM	12 nM	5.5 nM
COCC(=O)N(C)Cc1cc2c(nc1C=O)N(C(=O)Nc1cc(N[C@@H]3COC[C@H]3OC)c(C#N)cn1)CCC2 (relative stereo) [Example 108, N-(5-Cyano-4-(((trans)-4-methoxytetrahydrofuran-3-yl)amino)pyridin-2-yl)-7-formyl-6-((2-methoxy-N-methylacetamido)methyl)-3,4-dihydro-1,8-naphthyridin-1 (2H)-carboxamide]	> 10000 nM	> 10000 nM	–	–	–	–	–	–	1.07 nM	10 nM	2.5 nM
COCCSc1cc(NC(=O)N2CCCc3cc(CN(C)C(=O)[C@H]4CCCO4)c(C=O)nc32)ncc1C#N [Example 16, (R)—N-(5-Cyano-4-((2-methoxyethyl)thio)pyridin-2-yl)-7-formyl-6-((N-methyltetrahydrofuran-2-carboxamido)methyl)-3,4-dihydro-1,8-naphthyridin-1(2H)-carboxamide]	> 10000 nM	> 10000 nM	2 h	8760 ng·h/mL	8370 ng·h/mL	1.4 h	2.5 h	3140 ng/mL	1.98 nM	10.7 nM	3.9 nM
COCCNc1cc(NC(=O)N2CCCc3cc(CN(C)C(=O)[C@H]4CCCN4C)c(C=O)nc32)ncc1C#N [Example 9, (R)—N-(5-Cyano-4-((2-methoxyethyl)amino)pyridin-2-yl)-6-((N,1-dimethylpyrrolidin-2-carboxamido)methyl)-7-formyl-3,4-dihydro-1,8-naphthyridin-1(2H)-carboxamide]	> 10000 nM	> 10000 nM	2 h	4400 ng·h/mL	4800 ng·h/mL	1.3 h	3 h	1700 ng/mL	0.74 nM	31 nM	8.2 nM
